Data published in US9540427B2, “Peptide-based stat inhibitor” (The United States of America, as represented by the …, priority 2007, dated 2017).

How the values were obtained:
[1] = test system: normal mouse embryonic fibroblasts (MEFs); assay: Survival of normal mouse embryonic fibroblasts; assay type: cell-based; settings: normal MEFs (data not shown)
Excerpt: (§1) Furthermore, survival of normal mouse embryonic fibroblasts (MEFs) and STAT3-deficient MEFs was not affected by treatment with STAT3-Hel2A-2 (data not shown). […] This observation potentially provides a basis for an enhanced therapeutic ratio, based on differential inhibitor effects

[2] = test system: normal mammary epithelial cells MCF-10A; assay: MTT assay of growth and viability, MCF-10A; assay type: cell-based; settings: escalating doses
Procedure: Three breast cancer cell lines (MDA-MB-231, T47D, and MDA-MB-435) and normal breast epithelial (MCF-10A) were treated with escalating doses of STAT3-Hel2A-2 (SEQ ID NO: 20). Cell proliferation and cell death were estimated by MTT assay.

STAT3-deficient MEFs = assay: Survival of STAT3-deficient MEFs; assay type: cell-based, mouse; settings: STAT3-deficient MEFs (data not shown)
Excerpt: as §1

SMILES: CCCC[C@H](NC(=O)[C@H](CCCNC(=N)N)NC(=O)[C@H](CCCNC(=N)N)NC(=O)[C@H](CC(N)=O)NC(=O)[C@@H]1CCCN1C(=O)[C@H](Cc1ccccc1)NC(=O)[C@H](Cc1c[nH]c2ccccc12)NC(=O)[C@@H](NC(=O)[C@H](CCCCN)NC(=O)[C@@H](NC(=O)[C@H](CCC(N)=O)NC(=O)[C@H](CCCNC(=N)N)NC(=O)[C@H](Cc1ccc(O)cc1)NC(=O)[C@H](CC(C)C)NC(=O)[C@H](CCCCN)NC(=O)[C@H](Cc1c[nH]cn1)NC(=O)[C@H](CC(C)C)NC(=O)[C@H](CCC(N)=O)NC(=O)[C@H](CCC(=O)O)NC(=O)[C@H](CC(C)C)NC(=O)[C@H](Cc1ccc(O)cc1)NC(=O)[C@H](CCCNC(=N)N)NC(=O)[C@@H](NC(=O)[C@H](CC(=O)O)NC(=O)[C@@H](N)CC(C)C)[C@@H](C)O)[C@@H](C)CC)[C@@H](C)CC)C(=O)N[C@@H](CCCCN)C(=O)N[C@@H](Cc1c[nH]c2ccccc12)C(=O)N[C@@H](CCCCN)C(=O)N[C@@H](CCCCN)C(N)=O [Hel2A-2-Pen]
- Survival of normal cells [1]: not affected
- Growth and viability of normal cells [2]: not altered significantly
- Survival of STAT3-deficient cells (STAT3-deficient MEFs): not affected
